Assay results as given in patent US20220168434A1, “APPLICATION OF TRANSTHYRETIN IN ENTERING EYE AND PREPARING DROP” (YIZHOU (SHANGHAI) BIOLOGICAL MEDICINE CO, LTD., priority 2019, published 2022).

How the values were obtained:
[1] = test system: AMD C57BL/6 mice induced by laser retinal photocoagulation; assay: AMD (age-related macular degeneration) C57BL/6 mice induced by laser retinal photocoagulation, eye dropping, EB staining and Trypsin enzymatic hydrolysis of retina; format: in vivo; conditions: for eyeball retinal leakage condition (in words) / number of retinal neovascularization / neovascularization condition (in words): 10 μmol/L, eye dropping twice per day
Description: (§1) 9-week-old C57BL/6 mice were subject to retinal photocoagulation by krypton laser (647 nm), with a power of 360 mW, a diameter of 50 μm, a time of 0.05 s, 8 photocoagulation site for each eye, for inducing the neovascularization in choroid, and gradually proceeding to retinal hyperplasia to obtain AMD C57BL/6 mice. AMD C57BL/6 mice were divided into a dropping group and a non-dropping group.
as §1, with “group. […] The animals were sacrificed after eye dropping for 2 weeks, and the retina was stripped for EB staining to observe the retinal leakage conditions, and for Trypsin enzymatic hydrolysis to observe the density of neovascularization.” for “group.”
9-week-old C57BL/6 mice were subject to retinal photocoagulation by krypton laser (647 nm), with a power of 360 mW, a diameter of 50 μm, a time of 0.05 s, 8 photocoagulation site for each eye, for inducing the neovascularization in choroid, and gradually proceeding to retinal hyperplasia to obtain AMD C57BL/6 mice. […] Wherein, the left eye was dropped with human TTR prepared in Example 5, or human TTR prepared in Example 5 added with the excipient, specifically with 10 μmol/L human TTR (saline solution), 10 μmol/L human TTR (saline solution+6 mg/mL sodium carboxymethyl cellulose), 10 μmol/L human TTR (saline solution+6 mg/mL PEG400), 10 μmol/L human TTR (saline solution+0.4 mg/mL dextran 70) and 10 μmol/L human TTR (saline solution+20 mg/mL chondroitin sulfate A sodium salt); the right eye was dropped with saline solution, or saline solution added with the excipient as control, specifically with saline solution, saline solution+6 mg/mL sodium carboxymethyl cellulose, saline solution+6 mg/mL PEG400, saline solution+0.4 mg/mL dextran 70 and saline solution+20 mg/mL chondroitin sulfate A sodium salt). In addition, there was another group of normal […] C57BL/6 mice as a normal control group (5 mice). The animals were sacrificed after eye dropping for 2 weeks, and the retina was stripped for EB staining to observe the retinal leakage conditions, and for Trypsin enzymatic hydrolysis to observe the density of neovascularization.
9-week-old C57BL/6 mice were subject to retinal photocoagulation by krypton laser (647 nm), with a power of 360 mW, a diameter of 50 μm, a time of 0.05 s, 8 photocoagulation site for each eye, for inducing the neovascularization in choroid, and gradually proceeding to retinal hyperplasia to obtain AMD C57BL/6 mice. […] Wherein, the left eye was dropped with human TTR prepared in Example 5, or human TTR prepared in Example 5 added with the ligand, specifically with 10 μmol/L human TTR (saline solution+2% hyaluronic acid), 10 μmol/L human TTR (saline solution+2% hyaluronic acid+10 diclofenac sodium), 10 μmol/L human TTR (saline solution+2% hyaluronic acid+5 μmol/L vitamin A+5% Tween 80) and 10 μmol/L human TTR (saline solution+2% hyaluronic acid+5 μmol/L luteoloside); the right eye was dropped with saline solution+2% hyaluronic acid, or saline solution+2% hyaluronic acid+ligand as control, specifically with saline solution+2% hyaluronic acid, saline solution+2% hyaluronic acid+10 diclofenac sodium, saline solution+2% hyaluronic acid+5 μmol/L vitamin A+5% Tween 80 and saline solution+2% hyaluronic acid+5 luteoloside. In addition, there was another group of normal C57BL/6 mice as a normal control group (5 mice). The animals were sacrificed after eye dropping for 2 weeks, and the retina was stripped for EB staining to observe the retinal leakage conditions, and for Trypsin enzymatic hydrolysis to observe the density of neovascularization.

[2] = test system: ROP SD suckling rats induced by hyperbaric oxygen chamber; assay: ROP (retinopathy of prematurity) SD suckling rats induced by hyperbaric oxygen chamber, eye dropping, EB staining of retina; format: in vivo
[3] = test system: DR SD rats induced by STZ; assay: DR (diabetic retinopathy) SD rats induced by STZ, eye dropping, EB staining and Trypsin enzymatic hydrolysis of retina; format: in vivo; conditions: for eyeball retinal leakage condition (in words) / number of retinal neovascularization (in words): eye dropping twice per day
Method: 8-week-old SD rats weighing 200-250 g was fasted for 12-18 h, and treated with intraperitoneally injection of 2% STZ (60 mg/kg), followed by cutting the tail and collecting blood thereof after 48 h and 72 h. […] DR SD rats were divided into 2 large groups, one is DR SD rats without any treatment (5 rats), and the other is the human TTR eye dropping group (25 rats) dropped with the human TTR prepared in Example 5, each left eye dropped with human TTR (5-20 μmol/L) (normal saline+2% hyaluronic acid) twice a day, and each right eye dropped with saline+2% hyaluronic acid; in addition, another group of normal SD rats (No eye dropping) served as a normal control group (5 rats).
8-week-old SD rats weighing 200-250 g was fasted for 12-18 h, and treated with intraperitoneally injection of 2% STZ (60 mg/kg), followed by cutting the tail and collecting blood thereof after 48 h and 72 h. […]
8-week-old SD rats weighing 200-250 g, was fasted for 12-18 h, and treated with intraperitoneally injection of 2% STZ (60 mg/kg), followed by cutting the tail and collecting blood thereof after 48 h and 72 h. […] Wherein, the left eye was dropped with human TTR prepared in Example 5, or human TTR prepared in Example 5 added with the ligand, specifically with 10 μmol/L human TTR (saline solution+2% hyaluronic acid), 10 μmol/L human TTR (saline solution+2% hyaluronic acid+10 diclofenac sodium), 10 μmol/L human TTR (saline solution+2% hyaluronic acid+5 μmol/L vitamin A+5% Tween 80) and 10 μmol/L human TTR (saline solution+2% hyaluronic acid+5 luteoloside); the right eye was dropped with saline solution+2% hyaluronic acid, or saline solution+2% hyaluronic acid+ligand as control, specifically with saline solution+2% hyaluronic acid, saline solution+2% hyaluronic acid+10 diclofenac sodium, saline solution+2% hyaluronic acid+5 μmol/L vitamin A+5% Tween 80 and saline solution+2% hyaluronic acid+5 μmol/L luteoloside. In addition, there was another group of normal SD rats as a normal control group (5 rats). All SD rats were fed for 3 months, followed by stripping the retina for staining with Evans Blue (EB) to observe the retinal vascular leakage, for Trypsin enzymatic hydrolysis to observe the density of neovascularization.

[4] = target: T1, TTR (Homo sapiens, UniProt P02766); assay: Affinity binding equilibrium dissociation constant Kd of TTR and ligand molecules by nano ITC; conditions: 10 μmol/L TTR solution, 100 μmol/L ligand solution dropped at 1 μL/min, read-out: Affinity binding equilibrium dissociation constants (Kd) of ligand molecule and TTR
T1 construct: made in house; host or cells: E. coli BL21 (DE3)
Method: The affinity binding equilibrium dissociation constant Kd of TTR and each ligand molecule or salts thereof described in Example 24 was determined by nano ITC (TA).

[5] = target: TTR dimer (Homo sapiens, UniProt P02766); conditions: static co-crystallization model in the PDB database (3CFQ); cited from earlier work
[6] = AMD C57BL/6 mice, 10 μmol/L in saline solution + 2% hyaluronic acid, eyedropping twice per day, 2 weeks
[7] = ROP SD suckling rats, 10 μmol/L in saline solution + 2% hyaluronic acid, eyedropping once per day, 5 days
[8] = DR SD rats induced by STZ, 3 months
[9] = DR SD rats, 10 μmol/L in saline solution + 2% hyaluronic acid, eyedropping twice a day, 3 months
[10] = ROP SD suckling rats induced by hyperbaric oxygen chamber, 5 days of eye dropping, ligand independently (no TTR) in saline + 2% hyaluronic acid: 10 μmol/L diclofenac sodium/5 μmol/L vitamin A + 5% Tween 80/5 μmol/L luteoloside, right eye
[11] = AMD C57BL/6 mice induced by laser retinal photocoagulation, 2 weeks of eye dropping, ligand independently (no TTR) in saline + 2% hyaluronic acid: 10 μmol/L diclofenac sodium/5 μmol/L vitamin A + 5% Tween 80/5 μmol/L luteoloside, right eye
[12] = DR SD rats induced by STZ, 3 months of eye dropping, ligand independently (no TTR) in saline + 2% hyaluronic acid: 10 μmol/L diclofenac sodium/5 μmol/L vitamin A + 5% Tween 80/5 μmol/L luteoloside, right eye

| Kd [4] [nM] | Molecule | Retinal leakage area [2, 10] [%] | No. of retinal neovascularization (10 visual fields) [1, 11] | Retinal leakage area [1, 11] [%] | No. of retinal neovascularization (10 visual fields) [3, 12] | Retinal leakage area [3, 12] [%] | further results |
| --- | --- | --- | --- | --- | --- | --- | --- |
|  | mouse TTR: recombinant mouse TTR, amino acid sequence SEQ ID NO: 10 |  |  |  |  |  | No. of retinal neovascularization (10 visual fields) [1, 6]: 10 ± 3; Retinal leakage area [1, 6]: 4.2 ± 0.5%; eyeball retinal leakage condition (in words) ([1]; AMD C57BL/6 mice, 2 weeks): inhibited significantly; number of retinal neovascularization / neovascularization condition (in words) ([1]; AMD C57BL/6 mice, 2 weeks): reduced significantly |
|  | human TTR-CL: human mature TTR losing C terminus-TNPKE, amino acid sequence of SEQ ID NO: 11 |  |  |  |  |  | Retinal leakage area [2, 7]: 3.0%; No. of retinal neovascularization (10 visual fields) [1, 6]: 11 ± 2; Retinal leakage area [1, 6]: 4.8 ± 0.6%; eyeball retinal leakage condition (in words) ([1]; AMD C57BL/6 mice, 2 weeks): inhibited significantly; number of retinal neovascularization / neovascularization condition (in words) ([1]; AMD C57BL/6 mice, 2 weeks): reduced significantly; eyeball retinal leakage condition (in words) [3, 8]: significantly inhibited; number of retinal neovascularization (in words) [3, 8]: reduced significantly; No. of retinal neovascularization (10 visual fields) [3, 9]: 10 ± 1; Retinal leakage area [3, 9]: 5.7 ± 0.9% |
|  | rat TTR: recombinant rat TTR, amino acid sequence SEQ ID NO: 9 |  |  |  |  |  | Retinal leakage area [2, 7]: 3.6%; eyeball retinal leakage condition (in words) [3, 8]: significantly inhibited; number of retinal neovascularization (in words) [3, 8]: reduced significantly; No. of retinal neovascularization (10 visual fields) [3, 9]: 13 ± 2; Retinal leakage area [3, 9]: 6.2 ± 0.7% |
| 22.7 | CC1=C(/C=C/C(C)=C/C=C/C(C)=C/CO)C(C)(C)CCC1 [Vitamin A, retinol, reference compound] | 46.9 ± 4.9 | 79 ± 10 | 26.7 ± 3.4 | 76 ± 8 | 28.9 |  |
| 23.5 | CC1=C(/C=C/C(C)=C/C=C/C(C)=C/CO)C(C)(C)CC=C1 [Vitamin A2, 3-dehydroretinol] |  |  |  |  |  |  |
| 45 | O=C(O)Cc1ccccc1Nc1c(Cl)cccc1Cl [Diclofenac sodium, diclofenac sodium, reference compound] | 48.5 ± 5.8 | 85 ± 6 | 25.2 ± 3.0 | 80 ± 9 | 30.4 |  |
|  | O=C(O)Cc1ccccc1Nc1c(Cl)cccc1Cl [diclofenac] |  |  |  |  |  | molecules of ligand that one molecule of TTR dimer can bind [5]: two molecules |
| 129 | O=c1cc(-c2ccc(O)c(O)c2)oc2cc(O[C@@H]3O[C@H](CO)[C@@H](O)[C@H](O)[C@H]3O)cc(O)c12 [Luteoloside, luteoloside, reference compound] | 51.2 ± 6.8 | 82 ± 8 | 21.3 ± 2.2 | 79 ± 9 | 27.6 |  |
